Results as given in US20130041005A1, “PHARMACEUTICAL COMPOSITIONS COMPRISING NEUROPILIN INHIBITORS, AND THEIR USE FOR THE PREVENTION AND/OR TREATMENT OF ANGIOGENIC DISORDERS AND CANCERS” (TRAGEX PHARMA, priority 2011, published 2013).
Entries after “also recorded” stand apart in the source; their conditions may differ.

Tests used:
[1] = test system: MDA-MB-438; test: WST-1 proliferation assay, MDA-MB-438; type: cell-based; conditions: Homo sapiens; MDA-MB-438, 0.05 μM
[2] = test system: endothelial (HUVEC) cells; test: Apoptosis assay (Annexin V-FITC/PI), HUVEC; type: cell-based; conditions: IC50 concentration, 72 h (FIG. 2B)
Procedure: The level of apoptosis in endothelial (HUVEC) and breast cancer cells (MDA-MB-231) was detected by Annexin V-FITC Apoptosis Detection Kit (ref 556547, BD Biosciences, France) according to the manufacturer's instructions. Briefly, HUVEC and MDA-MB-231 cells were treated separately with DMSO (control) and the compounds of the invention at the concentration corresponding to the IC50, obtained by the proliferation assay, for 72 h. After treatment, all cell including both detached and attached cells were collected, centrifugated at 14000 rpm for 5 min and the apoptotic cells were detected by staining with Annexin V-FITC and (propidium iodide) PI. The cells were resuspended in 100 μl Annexin V binding buffer (10 mM Hepes/NaOH, pH 7.4, 140 mM NaCl, […]) containing 5 μl of Annexin V-FITC and 5 μl of PI (propidium iodide). Samples were gently mixed and incubated for 2 h on ice and in the dark. Viable and apoptotic cell were detected by flow citometry (FACS Calibur Becton Dickinson, France). Apoptotic cells include both the early apoptotic portion (Annexin V-positive) and the late apoptotic portion (Annexin V- and PI-positive). Staurosporine is used as a positive control of apoptosis induction.

[3] = test system: MDA-MB-231 cells; test: In vivo MDA-MB-231 tumor study in NOD-SCID mice; conditions: for tumor size: oral gavage (FIG. 8B); for percentage of survival at day 35: oral gavage (FIG. 8C)
Procedure: Female (NOD-SCID) mice 5-6 weeks old were injected subcutaneously with MDA-MB-231 cells (5.10^6) at a single site on their right flanks. Tumors were allowed to grow (19 days) to less than […] before being pair-matched by tumor size into treatment groups (8 mice/group). One group was treated with vehicles (8 mice/group receiving cremofor 12.5%/ethanol 12.5%/H2O), one group was treated with 10 mg/kg of the compound 1 of the invention (8 mice/group receiving compound 1+cremofor 12.5%/ethanol 12.5%/H2O), one group was treated with 50 mg/kg of the compound 1 of the invention ([…] receiving compound 1+cremofor 12.5%/ethanol 12.5%/H2O). All groups received daily by oral gavages for 5 consecutive days/weeks approximately 100 μL of a solution containing the compound 1 of the invention. Mice were weighed regularly to assess toxicity of the treatments and the tumors were measured with calipers (width×width×length×Pi/6) to determine tumor growth. Mice survival was assessed during the study and metastatic development was investigated in lung, spleen and liver.

With `O=C(NC(=S)Nc1cccc(-c2nc3ccccc3[nH]2)c1)c1ccc2c(c1)OCCO2` [Compound 2, N-[3-(1H-benzimidazol-2-yl)phenyl]-N′-(2,3-dihydro-1,4-benzodioxin-6-ylcarbonyl)thiourea] the inhibition at 0.05 µM [1] was 13% and the “induction of apoptosis in endothelial cells” value [2] was “induced the apoptosis; also recorded: induction of apoptosis”.

`Cc1ccc(-c2nc3ccccc3[nH]2)cc1NC(=S)NC(=O)c1ccc2c(c1)OCCO2` [Compound 1, N-[5-(1H-benzimidazol-2-yl)-2-methylphenyl]-N′-(2,3-dihydro-1,4-benzodioxin-6-ylcarbonyl)thiourea] was tested, and the tumor size ([3]; 10 mg/kg) was “tumor size was smaller”, the “percentage of survival at day 35” value ([3]; 10 mg/kg) was “about 70%” and the tumor size ([3]; 50 mg/kg) was “tumor size was smaller”. For the same compound, the “percentage of survival at day 35” value ([3]; 50 mg/kg) was 100%, the inhibition at 0.05 µM [1] was 2% and the “induction of apoptosis in endothelial cells” value [2] was “induced the apoptosis; also recorded: induction of apoptosis”.
